Source: US20190314345A1, “CALCINEURIN INHIBITOR AND NON-STEROIDAL ANTI-INFLAMMATORY DRUG TO REDUCE RISK OF POST-IMAGING PANCREATITIS” (UNIVERSITY OF PITTSBURGH - OF THE COMMONWEALTH SYSTEM OF …, priority 2016, published 2019)

Tests used:
calcineurin [1] = experiment: NFAT-luciferase activity assay in mouse primary acinar cells; type: cell-based; conditions: 30 min pre-treatment; FK506 24 μM, CsA 16 μM, BAPTA-AM 64 μM
Description: (§1) Acinar cells were infected with Ad-NFAT-luciferase following a previously described procedure^10, 15, 16. The construct includes a luciferase gene placed downstream of an IL-4 promoter which contains nine tandem NFAT binding sites^10. Acinar cells were incubated with the NFAT-driven luciferase adenovirus for 1.5 hr prior to stimulation. All of the stated inhibitors were added for 30 min prior to stimulation with RC. NFAT-luciferase was measured using the luciferase assay system. Briefly, cells were spun at 1,000 rpm for 5 min, washed with PBS, and lysed using reporter lysis 5× buffer (Promega #E397A, Madison, Wis.). Samples were vortexed and spun at 12,000 g for 2 min. Supernatant was plated, and luminescence was measured using a Synergy H1 plate reader (BioTek, Winooski, Vt.) and normalized to total protein.

calcineurin [2] = experiment: NFAT-luciferase activity assay in AR42J cells; type: cell-based; conditions: pretreatment; FK506 24 μM, CsA 16 μM, U73122 5 μM, 2-APB 100 μM, BAPTA 64 μM
Description: as §1

pancreatic acinar cells = experiment: ATP level measurements in acinar cells; type: cell-based, mouse; conditions: RC 12% for 3.5 hr
Description: Following isolation, pancreatic acinar cells were cultured in DMEM/F12 Medium (0.5 ml/well of a 48-well plate) at 37° C. water bath and treated with RC±FK506. Cells were collected at indicated time points and lysed in 100 lysis buffer (100 mM Tris pH 7.75, 4 mM EDTA). ATP levels were measured from 20 μl aliquots of acinar cell lysates using the ENLITEN luciferase/luciferin reagent (Promega catalog no. FF2021).

PEP model in mice [3] = experiment: PEP model with intraductal delivery of Cn inhibitors with the radiocontrast; type: in vivo, mouse; conditions: CsA 10 μM
Description: PEP was induced as previously described^73. Briefly, 100 μl iohexol (Omnipaque, GE Healthcare, Princeton, N.J.) was infused retrograde into the biliopancreatic duct at a rate of 20 μl/min for 5 min. Mice from the ductal manipulation (DM) group received retrograde infusion of 50 μl normal saline into pancreatic ductal at a lower rate of 10 μl/min for 5 min. Mice were euthanized 24 hr after PEP induction by CO2 inhalation and cervical dislocation. Mice from the sham group received laparotomy only. Blood was collected by retro-orbital bleed 6 h after PEP induction. […] Serum amylase was measured using a Phadebas Kit (Amersham Pharmacia, Rochester, N.Y.) according to the manufacturer's instruction. The pancreas, duodenum, and spleen were placed en bloc in a cassette in order to maintain anatomical orientation (FIG. 18A). The tissues were fixed in 4% paraformaldehyde at room temperature for 24 hr. Paraffin-embedded sections were stained with hematoxylin and eosin (HE). Ten systematically selected fields at 200× magnification were graded in a blinded fashion from the head of the pancreas, which was identified by its juxtaposition to the duodenum. […] Labelled areas within the parenchyma were marked as edema, and their surface area was calculated as a percentage of the total parenchymal area.

[4] = test system: duct manipulation (DM) model in mice; experiment: Duct manipulation (DM) mild model with intraductal Cn inhibitors; type: in vivo, mouse; conditions: FK506 1 μM, CsA 10 μM
Description: PEP was induced as previously described^73. Briefly, 100 μl iohexol (Omnipaque, GE Healthcare, Princeton, N.J.) was infused retrograde into the biliopancreatic duct at a rate of 20 μl/min for 5 min. Mice from the ductal manipulation (DM) group received retrograde infusion of 50 μl normal saline into pancreatic ductal at a lower rate of 10 μl/min for 5 min. Mice were euthanized 24 hr after PEP induction by CO2 inhalation and cervical dislocation. Mice from the sham group received laparotomy only. The pancreas, duodenum, and spleen were placed en bloc in a cassette in order to maintain anatomical orientation (FIG. 18A). The tissues were fixed in 4% paraformaldehyde at room temperature for 24 hr. Paraffin-embedded sections were stained with hematoxylin and eosin (HE). Ten systematically selected fields at 200× magnification were graded in a blinded fashion from the head of the pancreas, which was identified by its juxtaposition to the duodenum. The grading score gave equal weight (from 0 to 3) for edema, inflammatory infiltration, and necrosis, as described^5. Edema indices were further delineated objectively by performing intensity thresholding using ImageJ software (NIH, Bethesda, Md.). […] Labelled areas within the parenchyma were marked as edema, and their surface area was calculated as a percentage of the total parenchymal area.

PEP model in mice [5] = conditions: in vivo model of PEP in mice; earlier work; cited from earlier work

C=CC[C@@H]1/C=C(\C)C[C@H](C)C[C@H](OC)[C@H]2O[C@@](O)(C(=O)C(=O)N3CCCC[C@H]3C(=O)O[C@H](/C(C)=C/[C@@H]3CC[C@@H](O)[C@H](OC)C3)[C@H](C)[C@@H](O)CC1=O)[C@H](C)C[C@@H]2OC [FK506, tacrolimus]
effect on RC-induced rise in NFAT-luciferase (calcineurin [1]): largely prevented
effect on RC (6%)-induced NFAT-luciferase activity (calcineurin [2]): prevented
effect on RC-induced ATP depletion (pancreatic acinar cells): failed to prevent ATP depletion
serum amylase elevations seen with PEP (PEP model in mice [3]; 6 hr after infusion, intraductal FK506 1 μM): reduced
reduction of severity of the moderate model of PEP (PEP model in mice [3]; intraductal with radiocontrast, FK506 1 μM, down to sham levels): 61%
effect on mild histological damage seen with DM [4]: did not affect
effect of systemic frequent prophylactic dosing on PEP (PEP model in mice [5]): prevented PEP
